Measurements taken from patent US20240018120A1, “MAGL INHIBITORS” (H. LUNDBECK A/S, priority 2020, published 2024).

biological target: T1, MAGL (Homo sapiens, UniProt Q99685); assay: In vitro competitive substrate hydrolysis enzyme activity assay (pNPA), HEK293 cell lysates; assay type: biochemical; set-up: expressed in transfected cells; host or cells: HEK293; conditions: HEK293 lysate
T1 sequence (Q99685 1-303): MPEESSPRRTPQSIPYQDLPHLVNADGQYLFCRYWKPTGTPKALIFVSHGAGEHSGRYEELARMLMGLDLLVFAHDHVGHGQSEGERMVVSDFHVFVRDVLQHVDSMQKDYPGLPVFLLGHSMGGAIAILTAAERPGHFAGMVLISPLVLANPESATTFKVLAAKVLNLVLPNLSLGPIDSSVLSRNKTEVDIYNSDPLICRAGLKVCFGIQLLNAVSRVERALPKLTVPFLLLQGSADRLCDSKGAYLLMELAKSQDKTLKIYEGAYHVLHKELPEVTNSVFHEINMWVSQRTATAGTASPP
Description: HEK293 cell lysates expressing recombinant human MAGL enzyme and 4-nitrophenyl acetate (pNPA) substrate were diluted separately in 50 mM HEPES (pH 7.0) containing 200 mM KCl and 1 mM EDTA. Lysates (50 μL, ˜1.2 μg total protein) were preincubated with varying concentrations of inhibitors at 25° C. After 30 min, 2×pNPA substrate (50 μL, 2.5 mM) was added and the rate of substrate turnover was monitored by measuring the increase in absorbance at wavelength 405 nm for 20 minutes at 25° C. using a Biotek Neo2 plate reader. The mean velocity was converted to percent enzyme activity following background subtraction and normalization to DMSO controls. IC50 values were determined by fitting percent enzyme activities to a non-linear regression, 4-parameter, sigmoidal dose response function in Prism GraphPad.

SMILES | IC50
O=C(OC(C(F)(F)F)C(F)(F)F)N1CCC2(CC1)CC2C(=O)N1CCn2cc(C(F)(F)F)nc2C1 (single isomer, unassigned) [Example 52, 1,1,1,3,3,3-hexafluoropropan-2-yl (R or S)-1-(2-(trifluoromethyl)-5,6,7,8-tetrahydroimidazo[1,2-a]pyrazine-7-carbonyl)-6-azaspiro[2.5]octane-6-carboxylate] | 0.155 µM
O=C(OC(C(F)(F)F)C(F)(F)F)N1CCC2(CC1)CC2C(=O)N1CCc2ncncc2C1 (single isomer, unassigned) [Example 61, 1,1,1,3,3,3-hexafluoropropan-2-yl (R or S)-1-(5,6,7,8-tetrahydropyrido[4,3-d]pyrimidine-6-carbonyl)-6-azaspiro[2.5]octane-6-carboxylate] | 0.684 µM
O=C(OC(C(F)(F)F)C(F)(F)F)N1CCC2(CC1)CC2C(=O)N1CCc2nc(C3CC3)ncc2C1 (single isomer, unassigned) [Example 64, 1,1,1,3,3,3-hexafluoropropan-2-yl (R or S)-1-(2-cyclopropyl-5,6,7,8-tetrahydropyrido[4,3-d]pyrimidine-6-carbonyl)-6-azaspiro[2.5]octane-6-carboxylate] | 0.103 µM
O=C(Nc1cncc(Cl)c1)C1CC12CCN(C(=O)OC(C(F)(F)F)C(F)(F)F)CC2 (single isomer, unassigned) [Example 67, 1,1,1,3,3,3-hexafluoropropan-2-yl (R or S)-1-((5-chloropyridin-3-yl)carbamoyl)-6-azaspiro[2.5]octane-6-carboxylate] | 0.0485 µM
O=C(Nc1cccc(C(F)(F)F)n1)C1CC12CCN(C(=O)OC(C(F)(F)F)C(F)(F)F)CC2 (single isomer, unassigned) [Example 73, 1,1,1,3,3,3-hexafluoropropan-2-yl (R or S)-1-((6-(trifluoromethyl)pyridin-2-yl)carbamoyl)-6-azaspiro[2.5]octane-6-carboxylate] | 0.0003 µM
O=C(Nc1ccc(C(F)(F)F)nc1)C1CC12CCN(C(=O)OC(C(F)(F)F)C(F)(F)F)CC2 (single isomer, unassigned) [Example 79, 1,1,1,3,3,3-hexafluoropropan-2-yl (R or S)-1-((6-(trifluoromethyl)pyridin-3-yl)carbamoyl)-6-azaspiro[2.5]octane-6-carboxylate] | 0.851 µM

Results, then the molecule that gave them:

IC50 | SMILES
0.133 µM | CN(C(=O)C1CC12CCN(C(=O)OC(C(F)(F)F)C(F)(F)F)CC2)c1ccccn1 (single isomer, unassigned) [Example 46, 1,1,1,3,3,3-hexafluoropropan-2-yl (R or S)-1-(methyl(pyridin-2-yl)carbamoyl)-6-azaspiro[2.5]octane-6-carboxylate]
0.003 µM | O=C(Nc1ccccn1)C1CC12CCN(C(=O)OC(C(F)(F)F)C(F)(F)F)CC2 (single isomer, unassigned) [Example 49, 1,1,1,3,3,3-hexafluoropropan-2-yl (R or S)-1-(pyridin-2-ylcarbamoyl)-6-azaspiro[2.5]octane-6-carboxylate]
0.028 µM | O=C(Nc1cnccn1)C1CC12CCN(C(=O)OC(C(F)(F)F)C(F)(F)F)CC2 (single isomer, unassigned) [Example 55, 1,1,1,3,3,3-hexafluoropropan-2-yl (R or S)-1-(pyrazin-2-ylcarbamoyl)-6-azaspiro[2.5]octane-6-carboxylate]
0.0136 µM | Cc1ncccc1NC(=O)C1CC12CCN(C(=O)OC(C(F)(F)F)C(F)(F)F)CC2 (single isomer, unassigned) [Example 69, 1,1,1,3,3,3-hexafluoropropan-2-yl (R or S)-1-((2-methylpyridin-3-yl)carbamoyl)-6-azaspiro[2.5]octane-6-carboxylate]
0.985 µM | Cc1ncccc1NC(=O)C1CC12CCN(C(=O)OC(C(F)(F)F)C(F)(F)F)CC2 (single isomer, unassigned) [Example 70, 1,1,1,3,3,3-hexafluoropropan-2-yl (R or S)-1-((2-methylpyridin-3-yl)carbamoyl)-6-azaspiro[2.5]octane-6-carboxylate]
0.118 µM | Cc1ccc(NC(=O)C2CC23CCN(C(=O)OC(C(F)(F)F)C(F)(F)F)CC3)cn1 (single isomer, unassigned) [Example 82, 1,1,1,3,3,3-hexafluoropropan-2-yl (R or S)-1-((6-methylpyridin-3-yl)carbamoyl)-6-azaspiro[2.5]octane-6-carboxylate]

biological target: T1, MAGL; assay: In vitro competitive activity-based protein profiling, PC3 human cell membrane proteomes; assay type: biochemical; set-up: endogenous in cells; host or cells: PC3 human cells (membrane proteome); conditions: human PC3 membrane proteome
Description: PC3 human cell membrane proteomes (50 μL, 2.0 mg/mL total protein concentration) were preincubated with varying concentrations of inhibitors at 37° C. After 30 min, the ABPP probe JW912-Bodipy (1.0 μL, 50 μM in DMSO) was added and the mixture was incubated for 30 min at room temperature. Reactions were quenched with SDS loading buffer (15 μL-4×) and run on SDS-PAGE. Following gel imaging, serine hydrolase activity was determined by measuring fluorescent intensity of gel bands corresponding to MAGL using ImageJ 1.43u software. Intensities were converted to percent enzyme activity by normalizing to DMSO controls. IC50 values were determined by fitting percent enzyme activities to a non-linear regression, 4-parameter, sigmoidal dose response function in Prism GraphPad.

SMILES | IC50
CC1(CNC(=O)C2CC23CCN(C(=O)OC(C(F)(F)F)C(F)(F)F)CC3)CCOCC1 (single isomer, unassigned) [Example 169, 1,1,1,3,3,3-hexafluoropropan-2-yl (R or S)-1-(((4-methyltetrahydro-2H-pyran-4-yl)methyl)carbamoyl)-6-azaspiro[2.5]octane-6-carboxylate] | 0.21 µM
CS(=O)(=O)Nc1ccc(NC(=O)C2CC23CCN(C(=O)OC(C(F)(F)F)C(F)(F)F)CC3)cn1 (single isomer, unassigned) [Example 180, 1,1,1,3,3,3-hexafluoropropan-2-yl (R or S)-1-((6-(methylsulfonamido)pyridin-3-yl)carbamoyl)-6-azaspiro[2.5]octane-6-carboxylate] | 0.28 µM
O=C(O)COc1ccc(NC(=O)C2CC23CCN(C(=O)OC(C(F)(F)F)C(F)(F)F)CC3)cn1 (single isomer, unassigned) [Example 184, (R or S)-2-((5-(6-(((1,1,1,3,3,3-hexafluoropropan-2-yl)oxy)carbonyl)-6-azaspiro[2.5]octane-1-carboxamido)pyridin-2-yl)oxy)acetic acid] | 1.4 µM
O=C(NC1CCOCC1)[C@@H]1CC12CCN(C(=O)OC(C(F)(F)F)C(F)(F)F)CC2 [Example 9, 1,1,1,3,3,3-Hexafluoropropan-2-yl (R)-1-((tetrahydro-2H-pyran-4-yl)carbamoyl)-6-azaspiro[2.5]octane-6-carboxylate] | 0.727 µM

More lines, now with the values ahead:

IC50 | SMILES
0.0014 µM | CC(C)Oc1ccc(NC(=O)C2CC23CCN(C(=O)OC(C(F)(F)F)C(F)(F)F)CC3)cn1 (single isomer, unassigned) [Example 165, 1,1,1,3,3,3-hexafluoropropan-2-yl (R or S)-1-((6-isopropoxypyridin-3-yl)carbamoyl)-6-azaspiro[2.5]octane-6-carboxylate]
0.13 µM | CC(C)Oc1ccc(NC(=O)C2CC23CCN(C(=O)OC(C(F)(F)F)C(F)(F)F)CC3)cn1 (single isomer, unassigned) [Example 166, 1,1,1,3,3,3-hexafluoropropan-2-yl (R or S)-1-((6-isopropoxypyridin-3-yl)carbamoyl)-6-azaspiro[2.5]octane-6-carboxylate]
0.0025 µM | CC(=O)Nc1ccc(NC(=O)C2CC23CCN(C(=O)OC(C(F)(F)F)C(F)(F)F)CC3)cn1 (single isomer, unassigned) [Example 171, 1,1,1,3,3,3-hexafluoropropan-2-yl (R or S)-1-((6-acetamidopyridin-3-yl)carbamoyl)-6-azaspiro[2.5]octane-6-carboxylate]
0.13 µM | CC(=O)Nc1ccc(NC(=O)C2CC23CCN(C(=O)OC(C(F)(F)F)C(F)(F)F)CC3)cn1 (single isomer, unassigned) [Example 172, 1,1,1,3,3,3-hexafluoropropan-2-yl (R or S)-1-((6-acetamidopyridin-3-yl)carbamoyl)-6-azaspiro[2.5]octane-6-carboxylate]
0.22 µM | NC(=O)c1ccc(NC(=O)[C@@H]2CC23CCN(C(=O)OC(C(F)(F)F)C(F)(F)F)CC3)cn1 (single isomer, unassigned) [Example 174]
0.0014 µM | NC(=O)c1ccc(NC(=O)[C@H]2CC23CCN(C(=O)OC(C(F)(F)F)C(F)(F)F)CC3)cn1 (single isomer, unassigned) [Example 175]
0.29 µM | O=C(Nc1ccon1)C1CC12CCN(C(=O)OC(C(F)(F)F)C(F)(F)F)CC2 (single isomer, unassigned) [Example 177, 1,1,1,3,3,3-hexafluoropropan-2-yl (R or S)-1-(isoxazol-3-ylcarbamoyl)-6-azaspiro[2.5]octane-6-carboxylate]
0.0027 µM | O=C(Nc1ccon1)C1CC12CCN(C(=O)OC(C(F)(F)F)C(F)(F)F)CC2 (single isomer, unassigned) [Example 178, 1,1,1,3,3,3-hexafluoropropan-2-yl (R or S)-1-(isoxazol-3-ylcarbamoyl)-6-azaspiro[2.5]octane-6-carboxylate]
